Experimental findings from US20140295012A1, “LATENT HUMAN IMMUNODEFICIENCY VIRUS REACTIVATION” (priority 2011, published 2014) are described below.

Read-outs that look alike come from different tables or passages of the source. Where a SMILES comes first, the peptide text is derived from it. The star is where a group is joined. Cbz = O=C(OCc1ccccc1)*

Assay type in all cases: cell-based
The subject of series [1] is latently HIV-1 infected CA5 T cells. The settings on record: for priming effect on HIV-1 reactivation by sub-optimal dose of HRF: CA5 cells pretreated with increasing concentrations; for effect of higher concentrations on HIV-1 reactivation triggered by HRF or TNF-α: correlated with high levels of cytotoxicity. The method, then: (§1) Infection levels in the cell cultures were monitored by flow cytometric analysis of EGFP expression. Flow cytometric analysis was performed on a GUAVA EasyCyte (Millipore; Billerica, Mass.), or a LSRII (Becton & Dickinson; Franklin Lakes, N.J.).
Bacterial growth. Bacteria from various sources were isolated on TSA II agar plates containing 5% sheep blood. Bacterial isolates were then grown in RPMI 1640 medium supplemented with 10% FBS. After two days of incubation at 37° C. bacteria were pelleted and resuspended in RPMI medium to an optical density (OD600) of 8, aliquoted and frozen at −80° C. Unless otherwise indicated, Massilia timonae was grown in RPMI 1640 medium supplemented with 10% FBS. Typically, medium was inoculated with Massilia timonae from frozen stocks to an OD600 of 0.01. After 48 hours at 37° C., the culture was centrifuged at 3200 g to separate bacteria from the culture medium. Bacteria were resuspended in fresh medium to an OD600 of 8 and frozen to be used as references and stock cultures. The supernatant was then centrifuged at 10,000 g for 20 minutes and sterilized by passage through a 0.2 μm PVDF filter with low protein binding ability. HRF activity was determined by its ability to reactivate latent HIV-1 infection in CA5 cells. Only supernatants of which 6 μl reactivated infection in at least 60% of CA5 cells were used to study HRF properties.
Flow cytometry. Infection levels in the cell cultures were monitored by flow cytometric (FCM) analysis of GFP expression. FCM analysis was performed on a GUAVA EasyCyte (GUAVA Technologies, Inc.; Millipore; Billerica, Mass.) and a BD FACSCalibur or a LSRII (Becton & Dickinson; Franklin Lakes, N.J.). Cell sorting experiments were performed using a FACSAria™ Flow Cytometer (Becton&Dickinson). Data analysis was performed using either CellQuest (Becton&Dickinson) or GUAVA Express (GUAVA Technologies, Inc.).
To identify the optimal concentration of dactinomycin, CA5 T cells were pretreated with increasing concentrations of dactinomycin (0.0001 and 1 μg/ml), and then left untreated or stimulated with a sub-optimal concentration of HRF or TNF-α. Representative results for stimulation with HRF are depicted in FIG. 3. The chosen HRF concentration has only minimal HIV-1 reactivating effect by itself (15% reactivation over background). Twenty four hours after activator addition, levels of HIV-1 reactivation were determined as the percentage of GFP-positive cells using flow cytometric analysis, which allowed for the simultaneous determination of cell viability. […] Optimal pretreatment time was 18 hours. Maximum reactivation effects were seen 48 hours after stimulation.

Series [2] shares this test system.
Series [3] has as its system latently HIV-1 infected J89GFP T cells. As to the kind of experiment: HIV-1 reactivation / priming in latently HIV-1 infected J89GFP T cells (GFP, flow cytometry, HTS). The settings on record: 10 ng/ml PMA; three J89GFP populations. The method, then:
Flow cytometry. Infection levels in the cell cultures were monitored by flow cytometric (FCM) analysis of GFP expression. […] Cell sorting experiments were performed using a FACSAria™ Flow Cytometer (Becton&Dickinson). Data analysis was performed using either CellQuest (Becton&Dickinson) or GUAVA Express (GUAVA Technologies, Inc.).
Background: A flow cytometer gives signals particle by particle.

Series [4] relates to HIV-1 LTR. Briefly: Tat-independent activation of integrated LTR-GFP construct in NOMI reporter T cells. The settings on record: 24 hours. Here is the method: (§2) FIGS. 6A-6C show HRF triggers suboptimal functional induction of NF-κB dependent gene expression. […] The HIV-1 reactivating kinetics were determined by stimulating CA5 T cells with optimal concentrations of HRF, phorbol 12-myristate 13-acetate (PMA) and tumor necrosis factor-α (TNF-α) and analyzing HIV-1 reactivation as a function of EGFP-expression over a period of 48 hours. Data for all agents are depicted as the percentage of EGFP-positive cells in the total cell population. […] To test the ability of HRF to mediate Tat-independent activation of the HIV-1 LTR, NOMI cells (HIV-1 reporter cell line with an integrated LTR-EGFP construct) were stimulated with increasing concentrations of PMA (0.01-10 ng/ml), TNF-α (0.003-30 μg/ml) and HRF supernatant (0.3-100 μl). The level of LTR-induction was then measured as EGFP-expression detectable after 24 hours as determined by flow cytometric analysis. Arrows indicate the concentrations at which the respective stimulus would have triggered full HIV-1 reactivation in the latently HIV-1 infected CA5 T cell line. […] 293T cells were transfected with several NF-κB dependent promoter constructs and then stimulated with either TNF-α (10 μg/ml) or HRF (25 μl). Promoter induction was measured as total EGFP expression. (NF-κB:pNF-κB-d2EGFP; LTR:HIV-1 LTR-GFP; IL-8:pIL-8 GFP; TNF:human TNF-GFP; MSCV:murine stem cell virus LTR driven GFP; no NF-κB responsive elements).
As the NF-κB pathway has been recognized as vital to HIV-1 activation, the ability of HRF to trigger NF-κB activation was investigated. It was initially determined that HRF had the ability to stimulate Tat independent activation of an integrated LTR-GFP construct in NOMI reporter T cells.

The test system of series [5] is chronically actively infected T cell lines (JNLG#35 and JNLG#44). As to the kind of experiment: Active HIV-1 transcription in chronically actively infected T cell lines JNLG#35 and JNLG#44 (GFP MCF). The settings on record: 48 hours. Here is the method: Changes in HIV-1 transcription levels were determined after 48 hours by measuring GFP mean channel fluorescence intensity (GFP MCF). GFP MCF was plotted over the drug concentration for dactinomycin (FIG. 12A), the DNA intercalators daunorubicin (DM) (FIG. 12B) and rebeccamycin (RM) (FIG. 12C), as well as the transcription inhibitors ICRF-193 (FIG. 12D), DRB (FIG. 12E) and α-amanitin (FIG. 12F). The size of symbols indicates the respective cell viability in the sample (size range adjusted to 5-95%).
For this purpose, each of the compounds was titrated over a relevant range of concentrations on two chronically actively infected T cell lines (JNLG#35 and JNLG#44). These clonal cell lines are infected with a GFP-reporter virus. Forty eight hours after addition of the compounds, the effect of each compound on HIV-1 transcription was determined by flow cytometric analysis quantifying GFP mean channel fluorescence intensity (MCF).

In series [6] the test system is NF-κB dependent promoters in 293T cells. Briefly: NF-κB dependent promoter constructs transfected into 293T cells (EGFP expression). The method, then:
as §2
The utilized EGFP reporter virus HIV-1 NLENG1-IRES has been described elsewhere (Kutsch et al., J. Virol. 76:8776-86 (2002); Levy et al., Proc. Natl. Acad. Sci. USA 101:4204-9 (2004)). The reporter plasmid pNF-κB-d2EGFP was purchased from Clontech (Mountain View, Calif.). The LTR-GFP construct and the IL-8 reporter construct have been described earlier (Choi et al., Mol. Cell. Biol. 22:724-36 (2002)). The TNF-promoter construct was generated by cloning the human TNF-α promoter element defined by primer pair 5′-BglII; 5′-[…] […]-3′ (SEQ ID NO:2) and 3′-AgeI; 5′-[…] […]-3′ (SEQ ID NO:3) into pd2EGFP (Clontech). MSCV-GFP was generated by cloning the EGFP-gene into retroviral pMSCV-puro vector (Clontech).

For series [7], the system named is latently HIV-1 infected reporter T cell lines. The settings on record: four latently infected reporter T cell lines; culture supernatant. Here is the method: FIGS. 1A and 1B show culture supernatants from Massilia timonae reactivate latent HIV-1 infection. […] Untreated control cells and HRF-treated cells were subjected to flow cytometric analysis to determine enhanced green fluorescent protein (EGFP) expression as a direct and quantitative marker of HIV-1 expression 24 hours post stimulation. FSC/SSC dot plots are represented to evaluate cell viability as a function of changes in the FSC (cell size)-SSC (granularity) phenotype of the cells. FIG. 1B is a histogram showing the reproducibility of the observed HIV-1 reactivation. Three independent preparations of HRF (batches HRF1-3) on four different latently infected T cell lines (5F3, 8E12, CA5 and 12D4) were tested. The percentage of EGFP positive cells following stimulation is depicted in the histogram. Cell culture supernatants of Pseudomonas aeruginosa cultures, grown under similar conditions, were used as specificity controls.
as §1

In series [8] the test system is latently HIV-1 infected monocytic THP89GFP cells. As to the kind of experiment: HIV-1 reactivation in latently infected monocytic THP89GFP cells.

As for `CC[C@H](C)[C@@H]1NC(=O)CNC(=O)[C@@H]2Cc3c([nH]c4cc(O)ccc34)[S+]([O-])C[C@@H](NC(=O)CNC1=O)C(=O)N[C@@H](CC(N)=O)C(=O)N1C[C@H](O)C[C@H]1C(=O)N[C@@H]([C@@H](C)[C@@H](O)CO)C(=O)N2` (stereo in doubt) [α-amanitin], in series [1], the “priming effect on HIV-1 reactivation by sub-optimal dose of HRF” value (“priming effect on HIV-1 reactivation” below) is listed as “None of the inhibitors exerted a priming effect” and the “effect of higher concentrations on HIV-1 reactivation triggered by HRF or TNF-α” value is recorded as “inhibit HIV-1 reactivation”. The “priming effect on HIV-1 reactivation” value in series [1] (listed as α-aminitin) is given as “did not exhibit any priming effect”.
Take `OC[C@H]1O[C@@H](n2cnc3cc(Cl)c(Cl)cc32)[C@H](O)[C@@H]1O` [DRB, 5,6 dichloro-beta-D-ribofuranosylbenzimidazole]: in series [1], the “effect of higher concentrations on HIV-1 reactivation triggered by HRF or TNF-α” value is “inhibit HIV-1 reactivation”.
On to `CC(=O)NCCCCCCNC(C)=O` [HMBA, Hexamethylene bisacetamide], for which the “optimal concentration as HIV-1 priming agent prior to onset of drug mediated toxicities” value in series [1] fell in the range of 3 to 10 mM. Besides, the “HIV-1 reactivation (cells)” value in series [2] (3 mM) worked out at 15%; in series [2] (9 mM), 35%. The compound toxicity result in series [2] (9 mM) is “onset of compound toxicity”. Also, the HIV-1 reactivation levels in series [2] (HMBA alone, overall) is recorded as less than 40%. Moreover, the reactivation in series [2] (combination of HMBA and TNF-α) is 81%; in series [2] (optimal dose of HMBA alone) it was 27%. Further, the “priming for full reactivation by sub-optimal TNF-α” value in series [2] (sub-toxic concentrations) is “relatively potent at priming latent HIV-1 infection”.
For `CC(C)C[C@@H](C=O)NC(=O)[C@H](CC(C)C)NC(=O)[C@H](CC(C)C)NC(=O)OCc1ccccc1` [MG132] (Cbz-Leu-Leu-Leu-aldehyde), the “priming effect on HIV-1 reactivation” value in series [1] was “did not exhibit any priming effect”.
With `CCCCCCCCCCCCCC(=O)O[C@@H]1[C@@H](C)[C@@]2(O)[C@@H](C=C(CO)C[C@]3(O)C(=O)C(C)=C[C@@H]23)[C@@H]2C(C)(C)[C@]12OC(C)=O` [PMA, phorbol 12-myristate 13-acetate], the “Maximum achievable HIV-1 reactivation levels” value in series [3] came out at 90±3%. In addition, the “Tat-independent activation of integrated LTR-GFP construct (GFP expression)” value in series [4] was “stimulated Tat-independent activation”.
As for `C=C(c1ccc(C(=O)O)cc1)c1cc2c(cc1C)C(C)(C)CCC2(C)C` [bexarotene], the “effect with bryostatin on latent HIV-1 infection” value in series [2] (bexarotene overnight pretreatment, CA5 T cells) is given as “synergistic effect”. Moreover, the “priming of latent HIV-1 infection for reactivation by a second stimulus” value in series [2] (pretreatment 2 hours or overnight) is listed as “primed latent HIV-1 infection for reactivation by a second stimulus in a synergistic manner”.
On to `CC[C@@]1(O)C(=O)OCc2c1cc1n(c2=O)Cc2cc3ccccc3nc2-1` [camptothecin], for which, in series [1], the “priming effect on HIV-1 reactivation” value was “None of the inhibitors exerted a priming effect”.
In the case of `COc1cccc2c1C(=O)c1c(O)c3c(c(O)c1C2=O)C[C@@](O)(C(C)=O)C[C@@H]3O[C@H]1C[C@H](N)[C@H](O)[C@H](C)O1` [daunorubicin], the “priming effect on HIV-1 reactivation” value is listed as “not reproduced” in series [1] and “did not exhibit any priming effect” in series [1] (listed as Dauno). Also, the “effect on active HIV-1 infection / transcription (GFP MCF)” value in series [5] is listed as “boosted active HIV-1 transcription”.
`O=C1[O][Pt]2([NH][C@@H]3CCCC[C@H]3[NH]2)[O]C1=O` [oxaliplatin]: the “priming effect on HIV-1 reactivation” value in series [1] was “not reproduced”.
Consider `CC(=O)O[C@@]12C[C@@H](C)[C@@]3(O)[C@@H](C=C(CO)C[C@]4(O)C(=O)C(C)=C[C@@H]34)[C@@H]1C2(C)C` [prostratin], for which the interaction with bexarotene entry in series [2] is reported as “interact with bexarotene to reactivate latent HIV-1 infection”.
For `CO[C@H]1[C@H](O)[C@@H](O)[C@H](n2c3c(Cl)cccc3c3c4c(c5c6cccc(Cl)c6[nH]c5c32)C(=O)NC4=O)O[C@@H]1CO` [rebeccamycin], in series [1], the “priming effect on HIV-1 reactivation” value is “not reproduced”. The “effect on active HIV-1 infection / transcription (GFP MCF)” value in series [5] is “boosted active HIV-1 transcription”.
In the case of TNF-α, in series [1] (sub-optimal dose of TNF-α alone), the reactivation is listed as 32%. Also, the “Tat-independent activation of integrated LTR-GFP construct (GFP expression)” value in series [4] is recorded as “stimulated Tat-independent activation”. For the same molecule, in series [6], the “GFP expression driven by NF-κB responsive promoter constructs (IL-8, TNF-α, HIV-1 LTR, three consensus NF-κB sites)” value was “efficiently induced” and the “GFP expression of construct under control of murine stem cell virus LTR (no NF-κB responsive element)” value is listed as “Neither TNF-α nor HRF influenced GFP expression”.
With lipopolysaccharide, the HIV-1 reactivation entry in series [7] is recorded as “only reactivated HIV-1 infection in the latently HIV-1 infected monocytic THP89GFP cells”; in series [8] it was “reactivated HIV-1 infection”.
